Measured values as given in the NIST ThermoML archive (doi:10.1016/j.jct.2015.11.008).

Tests used:
[1] = 298.15 K, 101.33 kPa, Liquid; for mass density: Vibrating tube method
[2] = xn = mol fraction of the nth substance listed; conditions: 298.15 K, 101 kPa, Liquid; for mass density: Vibrating tube method

CCCC[n+]1ccc(C)cc1.O=S(=O)([N-]S(=O)(=O)C(F)(F)F)C(F)(F)F
[1]
Conditions | viscosity [mPa·s]
Concentric cylinders viscometry | 55.7
Falling or rolling sphere viscometry | 56.1

Conditions | mass density [kg/m3]
[1] | 1412.3

CCCC[n+]1ccn(C)c1.O=S(=O)([N-]S(=O)(=O)C(F)(F)F)C(F)(F)F
[1]
Conditions | viscosity [mPa·s]
Concentric cylinders viscometry | 50.9
Falling or rolling sphere viscometry | 51.5

Conditions | mass density [kg/m3]
[1] | 1436.3

CCCC[n+]1ccc(C)cc1.O=S(=O)([N-]S(=O)(=O)C(F)(F)F)C(F)(F)F + O
viscosity [mPa·s], [2]
Conditions | x2 = 0.00167 | x2 = 0.00513 | x2 = 0.01053 | x2 = 0.01985 | x2 = 0.04978 | x2 = 0.1002
Concentric cylinders viscometry | 55.7 | 55.3 | 54.8 | 53.9 | 50.4 | 45.6
Falling or rolling sphere viscometry | 56.1 | 56 | 55.1 | 54.2 | 51.3 | 46

[2]
Conditions | mass density [kg/m3]
x2 = 0.00167 | 1412.27
x2 = 0.00513 | 1412.02
x2 = 0.01053 | 1411.94
x2 = 0.01985 | 1411.55
x2 = 0.04978 | 1410.48
x2 = 0.1002 | 1408.83

CCCC[n+]1ccn(C)c1.O=S(=O)([N-]S(=O)(=O)C(F)(F)F)C(F)(F)F + O
viscosity [mPa·s], [2]
Conditions | x2 = 0.00078 | x2 = 0.00473 | x2 = 0.0101 | x2 = 0.01864 | x2 = 0.05002 | x2 = 0.1001
Concentric cylinders viscometry | 50.9 | 50.6 | 49.9 | 49.3 | 45.9 | 41.7
Falling or rolling sphere viscometry | 51.5 | 50.8 | 50.5 | 49.4 | 46.8 | 42.3

[2]
Conditions | mass density [kg/m3]
x2 = 0.00078 | 1436.26
x2 = 0.00473 | 1436.04
x2 = 0.0101 | 1435.89
x2 = 0.01864 | 1435.57
x2 = 0.05002 | 1434.5
x2 = 0.1001 | 1432.47

CCCCn1cc[n+](C)c1.F[B-](F)(F)F [1-butyl-3-methylimidazolium tetrafluoroborate]
[1]
Conditions | viscosity [mPa·s]
Concentric cylinders viscometry | 108
Falling or rolling sphere viscometry | 111.9

Conditions | mass density [kg/m3]
[1] | 1201.7

CCCCn1cc[n+](C)c1.F[B-](F)(F)F [1-butyl-3-methylimidazolium tetrafluoroborate] + O
viscosity [mPa·s], [2]
Conditions | x2 = 0.00062 | x2 = 0.005 | x2 = 0.00993 | x2 = 0.01995 | x2 = 0.04989 | x2 = 0.09965
Concentric cylinders viscometry | 108 | 105.9 | 103.7 | 99.5 | 87.9 | 71.4
Falling or rolling sphere viscometry | 111.9 | 107.4 | 106.5 | 99.9 | 89.6 | 72.5

[2]
Conditions | mass density [kg/m3]
x2 = 0.00062 | 1201.69
x2 = 0.005 | 1201.55
x2 = 0.00993 | 1201.36
x2 = 0.01995 | 1201.1
x2 = 0.04989 | 1200.18
x2 = 0.09965 | 1198.59

CCCCn1cc[n+](C)c1.O=S(=O)([O-])C(F)(F)F [1-butyl-3-methylimidazolium trifluoromethanesulfonate]
[1]
Conditions | viscosity [mPa·s]
Concentric cylinders viscometry | 90.7
Falling or rolling sphere viscometry | 92.8

Conditions | mass density [kg/m3]
[1] | 1298.3

CCCCn1cc[n+](C)c1.O=S(=O)([O-])C(F)(F)F [1-butyl-3-methylimidazolium trifluoromethanesulfonate] + O
viscosity [mPa·s], [2]
Conditions | x2 = 0.00022 | x2 = 0.00612 | x2 = 0.01 | x2 = 0.01738 | x2 = 0.04999 | x2 = 0.1003
Concentric cylinders viscometry | 90.7 | 89.2 | 88.2 | 86.2 | 79.7 | 70.4
Falling or rolling sphere viscometry | 92.7 | 91.3 | 89.6 | 87.9 | 81.3 | 70.6

[2]
Conditions | mass density [kg/m3]
x2 = 0.00022 | 1298.32
x2 = 0.00612 | 1298.12
x2 = 0.01 | 1297.98
x2 = 0.01738 | 1297.72
x2 = 0.04999 | 1296.84
x2 = 0.1003 | 1295.4

CCCC[N+](C)(C)C.O=S(=O)([N-]S(=O)(=O)C(F)(F)F)C(F)(F)F [butyltrimethylammonium bis(trifluoromethylsulfonyl)imide]
[1]
Conditions | viscosity [mPa·s]
Concentric cylinders viscometry | 104.9
Falling or rolling sphere viscometry | 104

Conditions | mass density [kg/m3]
[1] | 1392.9

CCCC[N+](C)(C)C.O=S(=O)([N-]S(=O)(=O)C(F)(F)F)C(F)(F)F [butyltrimethylammonium bis(trifluoromethylsulfonyl)imide] + O
viscosity [mPa·s], [2]
Conditions | x2 = 6e-05 | x2 = 0.00494 | x2 = 0.01002 | x2 = 0.01995 | x2 = 0.05012 | x2 = 0.09979
Concentric cylinders viscometry | 104 | 103.5 | 101.4 | 98.6 | 87.3 | 73
Falling or rolling sphere viscometry | 105 | 103.6 | 102.8 | 99.6 | 88.2 | 73

[2]
Conditions | mass density [kg/m3]
x2 = 6e-05 | 1392.89
x2 = 0.00494 | 1392.7
x2 = 0.01002 | 1392.61
x2 = 0.01995 | 1392.23
x2 = 0.05012 | 1391.7
x2 = 0.09979 | 1390.15
